According to patent US9149038B2, “4-amino-6-(heterocyclic)picolinates and 6-amino-2-(heterocyclic)pyrimidine-4-carboxylates and their use as herbicides” (Dow AgroSciences LLC, priority 2013, dated 2015):
Read-outs that look alike come from different tables or passages of the source.

What was measured:
[1] = test system: Key Broadleaf Weed and Crop Species; experiment: Post-Emergent Test II: postemergent herbicidal activity, visual rating after 14 d (Table 7); assay type: in vivo; conditions: post-emergence, 336 h; for pest or weed control at 35 g/ha: 35 g ai/ha; for pest or weed control at 70 g/ha: 70 g ai/ha; for pest or weed control at 140 g/ha: 140 g ai/ha
How it was run: (§1)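 Greenhouse plants at first or second true leaf stage sprayed with compound in acetone/DMSO-based spray solution with crop oil concentrate and Triton X-155 at 187 L/ha, tested at highest rate and ½× to 1/16× dilutions; solvent blank controls. Injury rated visually 0–100% versus untreated plants after 14 d.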

[2] = test system: Key Grass and Sedge Weeds as well as Grass Crops; experiment: Post-Emergent Test II: postemergent herbicidal activity, visual rating after 14 d (Table 8); assay type: in vivo; conditions: post-emergence, 336 h; for pest or weed control at 35 g/ha: 35 g ai/ha; for pest or weed control at 70 g/ha: 70 g ai/ha; for pest or weed control at 140 g/ha: 140 g ai/ha
How it was run: as §1

[3] = lambsquarters (Chenopodium album), read-out: Visual Growth Reduction (%) 14 Days After Application CHEAL
[4] = oilseed rape, canola (Brassica napus), read-out: Visual Growth Reduction (%) 14 Days After Application BRSNN
[5] = redroot pigweed (Amaranthus retroflexus), read-out: Visual Growth Reduction (%) 14 Days After Application AMARE
[6] = sunflower (Helianthus annuus), read-out: Visual Growth Reduction (%) 14 Days After Application HELAN
[7] = velvetleaf (Abutilon theophrasti), read-out: Visual Growth Reduction (%) 14 Days After Application ABUTH
[8] = wild poinsettia (Euphorbia heterophylla), read-out: Visual Growth Reduction (%) 14 Days After Application EPHHL
[9] = barnyardgrass (Echinochloa crus-galli), read-out: Visual Growth Reduction (%) 14 Days After Application ECHCG
[10] = giant foxtail (Setaria faberi), read-out: Visual Growth Reduction (%) 14 Days After Application SETFA
[11] = maize, corn (Zea mays), read-out: Visual Growth Reduction (%) 14 Days After Application ZEAMX
[12] = rice (Oryza sativa), read-out: Visual Growth Reduction (%) 14 Days After Application ORYSA
[13] = wheat, spring (Triticum aestivum), read-out: Visual Growth Reduction (%) 14 Days After Application TRZAS
[14] = yellow nutsedge (Cyperus esculentus), read-out: Visual Growth Reduction (%) 14 Days After Application CYPES

SMILES	pest or weed control at 35 g/ha [1, 3] [%]	pest or weed control at 70 g/ha [1, 3] [%]	pest or weed control at 140 g/ha [1, 3] [%]	pest or weed control at 35 g/ha [1, 4] [%]	pest or weed control at 70 g/ha [1, 4] [%]	pest or weed control at 140 g/ha [1, 4] [%]	pest or weed control at 35 g/ha [1, 5] [%]	pest or weed control at 70 g/ha [1, 5] [%]	pest or weed control at 140 g/ha [1, 5] [%]	pest or weed control at 35 g/ha [1, 6] [%]	pest or weed control at 70 g/ha [1, 6] [%]	pest or weed control at 140 g/ha [1, 6] [%]	pest or weed control at 35 g/ha [1, 7] [%]	pest or weed control at 70 g/ha [1, 7] [%]	pest or weed control at 140 g/ha [1, 7] [%]	pest or weed control at 35 g/ha [1, 8] [%]	pest or weed control at 70 g/ha [1, 8] [%]	pest or weed control at 140 g/ha [1, 8] [%]	pest or weed control at 35 g/ha [2, 9] [%]	pest or weed control at 70 g/ha [2, 9] [%]	other results
Cc1c(-c2ccc3c(c2)OC(F)(F)O3)nc(C(=O)O)c(Cl)c1N [Compound 52]	0 to 29	0 to 29	0 to 29	0 to 29	0 to 29	0 to 29	0 to 29	0 to 29	0 to 29	85 to 94	95 to 100	95 to 100	0 to 29	0 to 29	0 to 29	0 to 29	0 to 29	0 to 29	45 to 59	60 to 74	pest or weed control at 140 g/ha [2, 9]: 75 to 84%; pest or weed control at 35 g/ha [2, 10]: 0 to 29%; pest or weed control at 70 g/ha [2, 10]: 0 to 29%; pest or weed control at 140 g/ha [2, 10]: 45 to 59%; pest or weed control at 35 g/ha [2, 11]: 60 to 74%; pest or weed control at 70 g/ha [2, 11]: 60 to 74%; pest or weed control at 140 g/ha [2, 11]: 60 to 74%; pest or weed control at 35 g/ha [2, 12]: 0 to 29%; pest or weed control at 70 g/ha [2, 12]: 0 to 29%; pest or weed control at 140 g/ha [2, 12]: 0 to 29%; pest or weed control at 35 g/ha [2, 13]: 0 to 29%; pest or weed control at 70 g/ha [2, 13]: 30 to 44%; pest or weed control at 140 g/ha [2, 13]: 30 to 44%; pest or weed control at 35 g/ha [2, 14]: 0 to 29%; pest or weed control at 70 g/ha [2, 14]: 0 to 29%; pest or weed control at 140 g/ha [2, 14]: 0 to 29%
COC(=O)c1nc(-c2ccc3c(c2)OC(F)(F)O3)c(F)c(N)c1Cl [Compound 6]	95 to 100	95 to 100	95 to 100	75 to 84	85 to 94	85 to 94	75 to 84	75 to 84	95 to 100	85 to 94	85 to 94	95 to 100	95 to 100	95 to 100	95 to 100	85 to 94	85 to 94	95 to 100	95 to 100	95 to 100	pest or weed control at 140 g/ha [2, 9]: 95 to 100%; pest or weed control at 35 g/ha [2, 10]: 60 to 74%; pest or weed control at 70 g/ha [2, 10]: 75 to 84%; pest or weed control at 140 g/ha [2, 10]: 85 to 94%; pest or weed control at 35 g/ha [2, 11]: 85 to 94%; pest or weed control at 70 g/ha [2, 11]: 85 to 94%; pest or weed control at 140 g/ha [2, 11]: 85 to 94%; pest or weed control at 35 g/ha [2, 12]: 30 to 44%; pest or weed control at 70 g/ha [2, 12]: 45 to 59%; pest or weed control at 140 g/ha [2, 12]: 45 to 59%; pest or weed control at 35 g/ha [2, 13]: 45 to 59%; pest or weed control at 70 g/ha [2, 13]: 60 to 74%; pest or weed control at 140 g/ha [2, 13]: 60 to 74%; pest or weed control at 35 g/ha [2, 14]: 95 to 100%; pest or weed control at 70 g/ha [2, 14]: 95 to 100%; pest or weed control at 140 g/ha [2, 14]: 95 to 100%
Nc1c(F)c(-c2cc(F)c3c(c2)OC(F)(F)O3)nc(C(=O)O)c1Cl [Compound 18]	0 to 29	0 to 29	0 to 29	0 to 29	0 to 29	0 to 29	0 to 29	0 to 29	0 to 29	0 to 29	0 to 29	45 to 59	0 to 29	0 to 29	0 to 29	0 to 29	0 to 29	0 to 29	45 to 59	60 to 74	pest or weed control at 140 g/ha [2, 9]: 60 to 74%; pest or weed control at 35 g/ha [2, 10]: 45 to 59%; pest or weed control at 70 g/ha [2, 10]: 45 to 59%; pest or weed control at 140 g/ha [2, 10]: 60 to 74%; pest or weed control at 35 g/ha [2, 11]: 0 to 29%; pest or weed control at 70 g/ha [2, 11]: 30 to 44%; pest or weed control at 140 g/ha [2, 11]: 60 to 74%; pest or weed control at 35 g/ha [2, 12]: 0 to 29%; pest or weed control at 70 g/ha [2, 12]: 0 to 29%; pest or weed control at 140 g/ha [2, 12]: 0 to 29%; pest or weed control at 35 g/ha [2, 13]: 0 to 29%; pest or weed control at 70 g/ha [2, 13]: 45 to 59%; pest or weed control at 140 g/ha [2, 13]: 45 to 59%; pest or weed control at 35 g/ha [2, 14]: 0 to 29%; pest or weed control at 70 g/ha [2, 14]: 0 to 29%; pest or weed control at 140 g/ha [2, 14]: 0 to 29%
Nc1cc(-c2ccc3c(c2F)OC(F)(F)O3)nc(C(=O)O)c1Cl [Compound 41]	85 to 94	85 to 94	85 to 94	60 to 74	75 to 84	75 to 84	95 to 100	95 to 100	95 to 100	0 to 29	60 to 74	60 to 74	60 to 74	75 to 84	75 to 84	95 to 100	95 to 100	95 to 100	75 to 84	85 to 94	pest or weed control at 140 g/ha [2, 9]: 95 to 100%; pest or weed control at 35 g/ha [2, 10]: 75 to 84%; pest or weed control at 70 g/ha [2, 10]: 85 to 94%; pest or weed control at 140 g/ha [2, 10]: 85 to 94%; pest or weed control at 35 g/ha [2, 11]: 60 to 74%; pest or weed control at 70 g/ha [2, 11]: 75 to 84%; pest or weed control at 140 g/ha [2, 11]: 75 to 84%; pest or weed control at 35 g/ha [2, 12]: 0 to 29%; pest or weed control at 70 g/ha [2, 12]: 0 to 29%; pest or weed control at 140 g/ha [2, 12]: 0 to 29%; pest or weed control at 35 g/ha [2, 13]: 30 to 44%; pest or weed control at 70 g/ha [2, 13]: 30 to 44%; pest or weed control at 140 g/ha [2, 13]: 45 to 59%; pest or weed control at 35 g/ha [2, 14]: 0 to 29%; pest or weed control at 70 g/ha [2, 14]: 0 to 29%; pest or weed control at 140 g/ha [2, 14]: 0 to 29%
